Several values for one entry are separate records, joined by “and”; a condition that tells them apart may be missing. Equal values may be shown once.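 Following 48 hours of exposure in 96-well plates, responses at five concentrations were used to interpolate endpoints linearly. GI50 is the concentration that inhibits growth by half. The concentration for full growth arrest is given as TGI.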
What was measured:
Experiment in all cases: inhibition of tumour cell growth, NCI panel, 48 h
[1] = test system: MOLT-4 leukemia
[2] = test system: MALME-3M melanoma
[3] = test system: RXF 393 renal
[4] = test system: UO-31 renal
[5] = test system: HT29 colon
[6] = test system: NCI/ADR-RES ovarian
[7] = test system: LOX IMVI melanoma
[8] = test system: UACC-257 melanoma
[9] = test system: HCC-2998 colon
[10] = test system: OVCAR-4 ovarian

SMILES	GI50 [1] [µM]	TGI [1]	GI50 [2] [µM]	TGI [2]	GI50 [3] [µM]	TGI [3]	GI50 [4]	TGI [4]	GI50 [5] [µM]	TGI [5]	GI50 [6] [µM]	TGI [6]	GI50 [7] [µM]	TGI [7]	GI50 [8] [µM]	TGI [8]	GI50 [9] [µM]	TGI [9]	GI50 [10] [µM]	TGI [10]
O=C(Nn1c2c(sc1=NC1CC1)C(=O)c1ccccc1C2=O)c1cc2ccc1CCc1ccc(cc1)CC2	2.22	8.89 µM	0.57	1.75 µM	1.85	4.75 µM	0.85 µM	2.77 µM	3.32	28.7 µM	1.93	6.77 µM	0.966	2.62 µM	1.69	3.41 µM	2.34	6.67 µM	1.61	4.58 µM
C=CC1=C(C)C(Cc2[nH]c(/C=c3\[nH]/c(=C/C4=NC(=O)C(C)/C4=C\C)c(C)c3CCC(=O)O)c(CCC(=O)OC)c2C)NC1=O (stereo unspecified)	34.1	> 100 µM	31.8	69.8 µM	21.4	44 µM	18.9 µM	36.1 µM			48.8	> 100 µM	18.6	37.4 µM	7.9	41.1 µM	26.7	67.1 µM		
c1cc(-c2cnn3nc(N4CCOCC4)ccc23)nc(NC2CC2)n1	13.7	> 25 µM	12.1	> 25 µM	4.58	10.8 µM	7.12 µM	> 21.4 µM	8.35	> 25 µM	8.25	> 25 µM	6.23	> 25 µM	7.54	> 25 µM	8.64	> 25 µM	14.9	> 25 µM
Oc1oc(-c2ccccc2)nc1/C=C1/C=NN=N1		> 100 µM		> 100 µM		> 100 µM		> 100 µM		> 100 µM		> 100 µM		> 100 µM		> 100 µM		> 100 µM		> 100 µM
COc1cccc2cc(N(C)c3nc(C)nc4ccsc34)ccc12	< 0.01	29.7 µM	< 0.0116	18 µM	< 0.01	16.4 µM	< 0.01 µM	12.5 µM	< 0.01	11.6 µM	< 0.01	11 µM	< 0.01	13.6 µM	10.8	27 µM	< 0.01	8.01 µM	< 0.0266	19.8 µM
O=C1C(Nc2cccc(O)c2)=C(Sc2ccc(Cl)cc2)C(=O)N1Cc1ccccc1	3.05	28.3 µM	3.81	17.8 µM	3.9	21.2 µM	7.93 µM	> 100 µM			7.21	36.1 µM	8.7	29.1 µM			2.94	7.23 µM	14.1	> 100 µM
Cc1sc2c(c1C)C(c1ccc(Cl)cc1)=N[C@@H](CC(=O)Nc1ccc(O)cc1)c1nnc(C)n1-2	3.85	54.7 µM	12.5	33.4 µM	1.79	15.5 µM	0.151 µM	15.4 µM	0.197	18.9 µM	9.45	69.7 µM	0.109	6.29 µM	0.632	26.9 µM	2.48	21.8 µM	0.585	> 67 µM
COc1cc2c(cc1-c1c(C)noc1C)ncc1[nH]c(=O)n([C@H](C)c3ccccn3)c12	4.08	99.3 µM	1.05	76.2 µM	3.3	> 32.1 µM	0.119 µM	> 57.6 µM	0.244	> 100 µM	10.9	> 100 µM	0.352	20.3 µM	0.415	> 100 µM	2.5	17.8 µM	1.94	> 100 µM
Cc1cccc2cc3ccc4ccccc4c3cc12		70.9 µM		> 100 µM		> 100 µM		> 100 µM		97.8 µM		> 100 µM		> 100 µM		53 µM		46.7 µM		> 100 µM
O=C(Nc1ccc([N+](=O)[O-])cc1)c1cc2ccccc2cc1O	0.675	> 21.1 µM	0.258	1.11 µM	0.34	1.26 µM	0.294 µM	1.15 µM	3.52	> 29.8 µM	0.314	3.13 µM	0.405		0.313	1.48 µM	1.25	4.8 µM	0.322	> 100 µM
CCCCc1oc2ccccc2c1C(=O)c1cc(I)c(OCCN(CC)CC)c(I)c1	1.92	4.27 µM and 7.8 µM	1.86	3.71 µM and 8.57 µM	1.26	2.97 µM and 8.79 µM	2.54 µM and 7.07 µM	13.2 µM and 28.4 µM	1.97	5.01 µM and 8.27 µM	1.94	4.54 µM and 16.5 µM	1.49	2.82 µM and 7.86 µM	2.32	6.42 µM and 9.04 µM	1.69	3.23 µM and 7.89 µM	3.47	16.2 µM and 20.9 µM
COc1cc(C(=O)/C=C/c2c(-c3cccs3)nc3ccccn23)cc(OC)c1OC	1.77	4.39 µM	3.65	21.7 µM			1.07 µM	3.17 µM	2.09	4.19 µM	1.89	6.92 µM	1.87	4.9 µM	1.88	4.46 µM	1.96	3.37 µM	3.13	21.6 µM
O=C1/C(=C/c2ccc(C(F)(F)F)cc2)COc2ccc(O)cc21	2.33	21.2 µM	2.05	5.1 µM	1.74	3.48 µM	1.26 µM	2.67 µM	2.03	4.32 µM	2.15	6.42 µM	1.69	3.11 µM	8.06	20.9 µM	1.57	2.93 µM	3.4	13 µM
CO[C@H]1/C=C/C[C@H](C)[C@@H](C)S(=O)(=O)NC(=O)c2ccc3c(c2)N(C[C@@H]2CC[C@H]21)C[C@@]1(CCCc2cc(Cl)ccc21)CO3	1.73	8.8 µM	1.97	4.14 µM			3.19 µM	11.1 µM	2.13	5.16 µM	2.23	6.6 µM	1.84	3.41 µM	2.99	9.69 µM	1.65	3.45 µM	2.46	12.1 µM
NC(N)=N/N=C(/c1ccccc1)c1ccc(O)cc1O				> 100 µM		> 100 µM		> 100 µM		39.2 µM		> 100 µM		> 100 µM		> 100 µM		32 µM		> 100 µM
CN(C)CCN1C(=O)c2cccc3c(-c4ccc5ncn(C6CCCCC6)c5c4)ccc(c23)C1=O	0.446	10.1 µM	1.9	3.93 µM	1.35	2.96 µM	1.06 µM	2.4 µM	0.938	8.11 µM	1.14	13.4 µM			3.19	8.41 µM	1.82	4.3 µM	2.11	18.1 µM
C=C1C(=O)O[C@H]2[C@H]1CC/C(COC(=O)NCc1cccc(OC)c1)=C\CC[C@@]1(C)O[C@@H]21	2.38	7.19 µM	1.74	3.53 µM	1.38	2.84 µM	1.58 µM	2.94 µM	1.79	3.87 µM	3.07	12.3 µM	1.51	3.01 µM	1.96	5.79 µM	15.3	31.1 µM	2.61	11.1 µM
NCCCn1c2c(c3ccc([N+](=O)[O-])cc3c1=O)C(=O)c1cc(Cl)ccc1-2	< 0.01	< 0.0114 µM	< 0.01	0.195 µM	< 0.01	0.118 µM	< 0.01 µM	0.122 µM	< 0.01	0.225 µM	< 0.01	0.292 µM	< 0.01	0.117 µM	0.0526	1.31 µM	< 0.0138	0.119 µM		
OCCCCC#Cc1ccccc1C#Cc1cccs1	18.8	40.3 µM	22.8	55.4 µM	15.8	30.3 µM	16.9 µM	30.6 µM	12	27.6 µM	17.7	34.5 µM	13.9	26.8 µM	18.8	33 µM	18.3	33.7 µM	20.2	50.1 µM
CN1CCN(c2ccc([N+](=O)[O-])c3no[n+]([O-])c23)CC1	0.0645		0.378	0.712 µM and 1.08 µM	0.443	1.57 µM and 1.68 µM	0.189 µM	1.88 µM and 1.14 µM	0.135	3.43 µM and 0.512 µM	0.286	2.46 µM and 1.47 µM	0.157	1.14 µM and 0.612 µM	0.472	2.69 µM and 1.6 µM	1.32	2.73 µM	0.444	2.54 µM and 1.8 µM
C=C(C)C1CCC2(CO)C(O)CC3(C)C(CCC4C5(C)CCC(O)C(C)(C)C5CCC43C)C12 (stereo unspecified)		> 100 µM		32 µM		9.65 µM		26.7 µM		54.7 µM		81.5 µM		24.2 µM		24.9 µM				
Cc1[nH]ccc2cc3nc4ccccc4c3cc12	0.723	3.13 µM	2.27	7.94 µM	1.74	3.91 µM	2.02 µM	8.47 µM	1.16	3.55 µM	1.8	11.9 µM			3.35	12.8 µM	2.85	13.3 µM	2.65	10.7 µM
C#CCOc1cccc(Nc2ncnc3c2ncn3C2CCN(C(=O)CCl)C2)c1 (stereo unspecified)			12.3	28.1 µM	17.1	36.6 µM	15.2 µM	29.6 µM	19.4	37.4 µM	41.3	> 100 µM			26.3	79.2 µM	18.2	37.3 µM	19.4	45 µM
O=C(O)CCc1nc(-c2ccccc2)c(-c2ccccc2)o1		> 100 µM		> 100 µM		> 100 µM				> 100 µM		> 100 µM		> 100 µM		> 100 µM				> 100 µM
CC(C)(C)n1cc(-c2ccnc(NCCCNS(=O)(=O)c3ccc(Cl)cc3)c2)c(-c2cccc(O)c2)n1	1.91	5.64 µM	1.66	3.41 µM	1.46	2.99 µM	1.89 µM	5.02 µM			1.92	4.62 µM	1.73	3.15 µM	1.86	3.81 µM	1.76	3.24 µM	1.94	4.64 µM
COc1ccc(NCc2c(O)ccc3ccccc23)cc1				38.8 µM		35 µM		> 100 µM		> 100 µM		> 100 µM		29.4 µM		44.5 µM				> 100 µM
COc1ccc(Cn2c3c(c4c(O)cccc42)C(=O)c2ccccc2-3)cc1	15.8	49.3 µM	8.71	22.4 µM			13.8 µM	67.7 µM	16	38.5 µM	2.51	11.3 µM	18.8	47.8 µM	11.7	27.2 µM	8.26	21.7 µM		
Cc1ccc2oc(=O)cc(C3c4ccc([nH]4)C(c4cc(=O)oc5ccc(C)cc45)c4ccc([nH]4)C(c4cc(=O)oc5ccc(C)cc45)c4ccc([nH]4)C(c4cc(=O)oc5ccc(C)cc45)c4ccc3[nH]4)c2c1 (stereo unspecified)			0.131	2.85 µM	0.0254	0.0774 µM	0.0364 µM	1.19 µM	0.0347	0.108 µM	0.0313	1.1 µM	0.0365	1.23 µM	0.183	2.46 µM	0.188	0.846 µM	0.104	3.81 µM

Reference: PubChem BioAssay (NCI)
